The record followed here is patent US20250325529A1, “INHIBITORS OF FATTY ACID BINDING PROTEINS (FABPs), METHODS OF USE AND METHODS OF MAKING” (Celloram, inc., priority 2024, published 2025).

Entries after “also recorded” stand apart in the source; their conditions may differ. Where only a bound is given, the exact number is not on record here.

A word on the Kd: it is the free concentration of one partner at which half of the binding sites on the other are occupied at equilibrium, for simple one-to-one binding. For orientation: half-life means the time in which the quantity being followed falls by half. Higher therefore signals slow loss. The term bioavailability denotes dose-corrected exposure relative to a reference, in per cent.

Series [1] addresses FABP5 (Homo sapiens (Human), UniProt Q01469). As to the kind of experiment: Fluorescence (ANS) competition binding assay, FABP5. Particulars: ANS displacement. As for the experimental part: (§1) This example illustrates a two-step fluorescence binding assay study used to determine the binding affinity of the various inhibitor compounds disclosed herein with the various FABPs: FABP3, FABP4, FABP5 and FABP7. Further secondary screening studies were carried out for compounds with high binding affinities toward the FABPs and based on their ability to activate the nuclear receptors PPARα, PPARγ, or PPARδ.
(§2) Binding assays for FABP3, FABP4, FABP5 and FABP7 were carried out by fluorescence titrations. His-tagged FABPs were bacterially expressed in E. coli, purified using Ni Sepharose beads, and the equilibrium dissociation constants (Kd) that characterize their interactions with different inhibitor compounds were measured by fluorescence competition assays. The method entails two steps as described in e.g., Lin, Q. et al., “Ligand selectivity of the peroxisome proliferator-activated receptor alpha,” Biochemistry 38, 185-190, doi:10.1021/bi9816094 [pii](1999). In the first step, Kd for the association of the protein with the fluorescent fatty acid probe ANS was measured. Protein (2 μM) was titrated with ANS from a concentrated solution in DMSO. Ligand binding was monitored by following the increase in the fluorescence of the ligand upon binding to the protein, and Kd for the association of ANS with the each FABP was computed from titration curves as described in e.g., Norris, A. W. & Li, E., “Fluorometric titration of the CRABPs,” Methods Mol Biol 89, 123-139 (1998)). In the second step, Kds for binding of non-fluorescent ligands were measured by monitoring their ability to displace ANS in the binding pocket of the protein. Each FABP was precomplexed with ANS at 1:1 molar ratio and titrated with the different compounds whose binding was reflected by a decrease in probe fluorescence. Kds were extracted from the EC50 of the competition curve and the measured Kd for ANS.

Series [2] addresses FABP4 (Homo sapiens (Human), UniProt P15090). As to the kind of experiment: Fluorescence (ANS) competition binding assay, FABP4. The following applies: ANS displacement. Here is the method:
as §1, §2

The target in series [3] is FABP3 (Homo sapiens (Human), UniProt P05413). The experiment in a line: Fluorescence (ANS) competition binding assay, FABP3. The following applies: ANS displacement. As for the experimental part: as §1, §2
FABP3, sequence (P05413 whole entry, species assumed): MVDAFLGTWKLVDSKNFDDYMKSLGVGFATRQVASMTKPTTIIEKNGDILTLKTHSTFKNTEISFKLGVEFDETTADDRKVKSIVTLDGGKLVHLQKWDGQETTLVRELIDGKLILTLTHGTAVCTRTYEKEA
Series [4] has as its target FABP7 (Homo sapiens (Human), UniProt O15540). The experiment in a line: Fluorescence (ANS) competition binding assay, FABP7. The following applies: ANS displacement. As for the experimental part: as §1, §2
Series [5] addresses PPARα (Homo sapiens (Human), UniProt Q07869). As to the kind of experiment: Transcriptional activation assay in COS7 cells, PPARα. The following applies: PPRE luciferase reporter, PD151 and PD152 at 10 μM. The class given is cell-based. Here is the method: (§3) COS-7 were cultured in 6-well plates and co-transfected with either a luciferase reporter driven by 3 copies of a PPRE and expression vector for either PPARδ, PPARα or PPARγ together with a vector harboring cDNA for β-galactosidase, serving as a transfection control. To test whether FABP4 or FABP5 mediate activation of their cognate receptors PPARγ and PPARδ, respectively, cells were also co-transfected with a plasmid harboring sequence of either FABP4 or FABP5. 18 h post-transfection, cells were placed in a serum-free medium and treated with agonist/compound. 18 h. later, cells were lysed, luciferase activity was assayed (Promega, WI, USA) and corrected for transfection efficiency by the activity of β-galactosidase.
(§4) Transcriptional activation assays were carried out utilizing COS7 cells as described above.
(In general: A reporter such as luciferase makes a cellular process visible.)

The target of series [6] is PPARγ (Homo sapiens (Human), UniProt P37231). As to the kind of experiment: Transcriptional activation assay in COS7 cells, PPARγ. Format: cell-based. The following applies: PPRE luciferase reporter, PD151 and PD152 at 10 μM. As for the experimental part:
as §3, §4

Series [7] addresses PPARδ (Homo sapiens (Human), UniProt Q03181). As to the kind of experiment: Transcriptional activation assay in COS7 cells, PPARδ. The class given is cell-based. The following applies: PPRE luciferase reporter, PD151 and PD152 at 10 μM. As for the experimental part: as §3, §4
For series [8], the system named is MB-231 cells. The experiment in a line: Proliferation assay (Incucyte confluency), MB-231. The class given is cell-based. The following applies: Homo sapiens, 96 h, 4 days, read-out: IC50, inhibition of proliferation. As for the experimental part:
(§5) COS-7, MDA-MB-231, and HepG2, were cultured in Dulbecco's modified Eagle's medium (DMEM) supplemented with 10% fetal bovine serum (Invitrogen Life Sciences, Carlsbad, CA). BT-549, OVCAR5 and OVCAR8 cells were cultured in L-Glutamine containing RPMI medium supplemented with 10% fetal calf serum (Invitrogen Life Sciences, Carlsbad, CA). The primary Human Mammary Epithelial Cells (HMEC) were cultured in mammary epithelial cell complete medium (basal medium plus rH-Insulin (5 μg/mL); L-Glutamine (6 mM); Epinephrine (1 μM); Apo-Transferrin (5 μg/mL); rH-TGF-α (0.5 ng/mL); ExtractP (0.4%); Hydrocortisone Hemisuccinate (100 ng/mL)).
(§6) 2000 cells were plated in each well of 96-well plate. The next day cells were treated with compounds and incubated in Incucyte for 4 days. Images taken every 4 hours for the duration of the time were analyzed to calculate percentage of confluency in response to the treatments. Growth inhibition was calculated as 1—(percentage of viable cells out of untreated cells).

Series [9] deals with BT-549 cells. The experiment in a line: Proliferation assay (Incucyte confluency), BT-549. The class given is cell-based. The following applies: Homo sapiens, 96 h, 4 days, read-out: IC50, inhibition of proliferation. As for the experimental part: as §5, §6
The subject of series [10] is OVCAR8 cells. As to the kind of experiment: Proliferation assay (Incucyte confluency), OVCAR8. Particulars: Homo sapiens, OVCAR-8, 96 h, 4 days, read-out: IC50, inhibition of OVCAR8 proliferation. Format: cell-based. As for the experimental part:
as §5, §6

For series [11], the system named is OVCAR5 cells. The experiment in a line: Proliferation assay (Incucyte confluency), OVCAR5. The class given is cell-based, human. The following applies: 4 days. As for the experimental part:
as §5, §6

A short description of series [12]: Single dose IV and PO PK study in C57BL/6 mice. Format: in vivo. The following applies: male C57BL/6 mice. Here is the method:
C57BL/6 male mice or Han Wistar rats were used, n=3 for each administration route and compound. Single dose of each compound was administered orally (PO, 10 mg/Kg) or by intravenous administration (IV, 1 mg/Kg). Following intravenous and oral administration, blood samples (ca 0.2 mL) were collected and compound amount was measured by HLPC. For IV group, blood samples were collected at 0.083, 0.25, 0.5, 1, 2, 4, 6, 8, and 24 hours post-dose. For PO group, blood samples were collected at 0.25, 0.5, 1, 2, 4, 6, 8, and 24 hours post-dose.

Setting [13] is: mouse, plasma, intravenous 1 mg/kg.

PPARδ, sequence (Q03181 whole entry, species assumed): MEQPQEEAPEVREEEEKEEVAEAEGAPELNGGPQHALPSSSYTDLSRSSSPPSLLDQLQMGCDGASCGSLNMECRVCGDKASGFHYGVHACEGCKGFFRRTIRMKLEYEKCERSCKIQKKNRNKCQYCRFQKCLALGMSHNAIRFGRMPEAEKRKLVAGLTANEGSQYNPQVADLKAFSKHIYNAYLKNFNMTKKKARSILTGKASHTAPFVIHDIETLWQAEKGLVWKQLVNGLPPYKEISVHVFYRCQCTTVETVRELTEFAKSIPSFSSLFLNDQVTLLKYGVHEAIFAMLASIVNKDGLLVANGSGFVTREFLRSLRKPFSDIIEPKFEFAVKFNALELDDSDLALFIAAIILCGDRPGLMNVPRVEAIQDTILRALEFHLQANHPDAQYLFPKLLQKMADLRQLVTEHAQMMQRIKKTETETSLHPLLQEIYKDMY
PPARα, sequence (Q07869 whole entry, species assumed): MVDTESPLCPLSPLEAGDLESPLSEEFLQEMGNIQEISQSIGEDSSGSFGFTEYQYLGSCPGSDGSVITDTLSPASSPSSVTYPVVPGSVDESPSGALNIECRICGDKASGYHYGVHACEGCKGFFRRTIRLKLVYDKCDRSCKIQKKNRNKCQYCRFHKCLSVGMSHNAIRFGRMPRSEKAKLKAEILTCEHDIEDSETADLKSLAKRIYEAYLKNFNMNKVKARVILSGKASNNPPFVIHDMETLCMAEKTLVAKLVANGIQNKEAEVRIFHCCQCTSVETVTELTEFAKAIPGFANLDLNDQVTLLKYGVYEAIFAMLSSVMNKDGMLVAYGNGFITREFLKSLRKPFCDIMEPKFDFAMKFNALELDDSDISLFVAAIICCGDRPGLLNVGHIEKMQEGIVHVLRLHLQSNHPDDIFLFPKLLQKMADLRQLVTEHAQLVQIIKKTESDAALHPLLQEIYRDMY
PPARγ, sequence (P37231 whole entry, species assumed): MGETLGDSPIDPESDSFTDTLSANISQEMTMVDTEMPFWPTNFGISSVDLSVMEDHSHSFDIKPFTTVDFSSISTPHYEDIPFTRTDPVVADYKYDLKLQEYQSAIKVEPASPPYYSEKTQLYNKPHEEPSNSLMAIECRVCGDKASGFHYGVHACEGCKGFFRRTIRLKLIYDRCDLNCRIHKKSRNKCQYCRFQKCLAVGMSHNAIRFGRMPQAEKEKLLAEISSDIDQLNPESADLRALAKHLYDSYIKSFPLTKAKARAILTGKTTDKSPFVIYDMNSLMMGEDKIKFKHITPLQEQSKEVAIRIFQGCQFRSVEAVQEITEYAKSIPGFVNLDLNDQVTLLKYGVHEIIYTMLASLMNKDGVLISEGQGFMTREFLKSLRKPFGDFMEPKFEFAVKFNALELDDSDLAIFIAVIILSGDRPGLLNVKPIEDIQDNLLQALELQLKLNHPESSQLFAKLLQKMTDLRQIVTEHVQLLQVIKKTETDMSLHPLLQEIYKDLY
FABP5, sequence (Q01469 whole entry, species assumed): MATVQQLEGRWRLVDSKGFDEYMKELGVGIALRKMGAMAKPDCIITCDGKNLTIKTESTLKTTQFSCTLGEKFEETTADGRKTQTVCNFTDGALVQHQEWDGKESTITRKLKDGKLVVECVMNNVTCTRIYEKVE
FABP7, sequence (O15540 whole entry, species assumed): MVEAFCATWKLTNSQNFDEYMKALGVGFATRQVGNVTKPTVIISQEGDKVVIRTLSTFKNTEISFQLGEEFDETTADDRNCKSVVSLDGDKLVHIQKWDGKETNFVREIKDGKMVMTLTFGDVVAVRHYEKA
FABP4, sequence (P15090 whole entry, species assumed): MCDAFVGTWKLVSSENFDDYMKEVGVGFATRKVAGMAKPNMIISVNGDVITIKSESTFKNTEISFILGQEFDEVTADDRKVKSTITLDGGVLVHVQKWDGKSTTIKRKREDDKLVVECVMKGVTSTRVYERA

For `CC(C)Oc1nc(NC(=O)CSCC(=O)O)c(Cl)cc1C(F)(F)F` [PD151, 2-((2-((3-chloro-6-isopropoxy-5-(trifluoromethyl)pyridin-2-yl)amino)-2-oxoethyl)thio)acetic acid], the Kd in series [1] is 16 nM; in [2] it was 18 nM; in [3] it was 250 nM; in series [4], over 1000 nM. In addition, in [5], the “Activation of transcription by PPARα” value was “None of these tested compounds activated; also recorded: none of the tested compounds PD151 and PD152 activated transcription”. Further, the “Activation of transcription by PPARγ” value in series [6] was “None of these tested compounds activated; also recorded: none of the tested compounds PD151 and PD152 activated transcription”. The “Activation of transcription by PPARδ” value in series [7] is “None of these tested compounds activated; also recorded: none of the tested compounds PD151 and PD152 activated transcription”. For the same molecule, the figures for the IC50 in series [8], in series [9] and in series [10] were 727 nM, 1010 nM and 700 nM, respectively. Also, in [11], the “Inhibition of OVCAR5 proliferation” value is recorded as “inhibited proliferation of the two cell lines in a dose-dependent manner”. The molecule also returned a Thalf in [12] (oral 10 mg/kg) of 4 h. Besides, the clearance in series [12] (setting [13]) was 5.3 mL/min/kg. The same molecule came in with a half-life in series [12] (setting [13]) of 3 to 4 h. In addition, in series [12] (mouse, plasma, single oral dose 10 mg/kg), the bioavailability came out at 95%.
